Measured values taken from the supplement of paper PMC6045584.
± gives the standard deviation of the averaged measurements.

Experiments:
[1] = compound: COc1ccc(-c2cc3c(C)nc(N)nc3n([C@H]3CC[C@H](OCCO)CC3)c2=O)cn1; experiment: surviving fraction relative to DMSO-only wells; higher = less growth inhibition; conditions: exposure time: 5 days
How it was run: (§1)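 Lines were retained only if, across three screens, replicate Pearson r was >0.7 and median Z' was >0.3. Viability was measured as CellTiter-Glo luminescence and reported as surviving fraction relative to the median of DMSO-only wells. Readings followed 10 minutes at room temperature, after log-phase tumour cells seeded at 250–500 per well in 384-well plates had been exposed, from 24 hours after seeding, continuously for five days to inhibitors at 0.5, 1, 5, 10, 50, 100, 500 and 1000 nM.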

BEZ-235 = compound: Cn1c(=O)n(-c2ccc(C(C)(C)C#N)cc2)c2c3cc(-c4cnc5ccccc5c4)ccc3ncc21 [BEZ-235]; experiment: as above; conditions: exposure time: 5 days
How it was run: as §1

Test System	surviving fraction ([1]; 0.5 nM)	surviving fraction ([1]; 1 nM)	surviving fraction ([1]; 5 nM)	surviving fraction ([1]; 10 nM)	surviving fraction ([1]; 50 nM)	surviving fraction ([1]; 100 nM)	surviving fraction ([1]; 500 nM)	surviving fraction ([1]; 1000 nM)	surviving fraction (BEZ-235; 0.5 nM)	surviving fraction (BEZ-235; 1 nM)	surviving fraction (BEZ-235; 5 nM)	surviving fraction (BEZ-235; 10 nM)	surviving fraction (BEZ-235; 50 nM)	surviving fraction (BEZ-235; 100 nM)	surviving fraction (BEZ-235; 500 nM)	surviving fraction (BEZ-235; 1000 nM)
HCC1395 BREAST	0.864 ± 0.096	0.956 ± 0.025	0.998 ± 0.076	1.03 ± 0.029	0.883 ± 0.21	0.846 ± 0.13	0.766 ± 0.1	0.581 ± 0.15	1.03 ± 0.12	0.967 ± 0.11	1.14 ± 0.095	1.09 ± 0.037	0.988 ± 0.12	1 ± 0.13	0.788 ± 0.12	0.759 ± 0.17
HCC1806 BREAST	1.08 ± 0.14	1.1 ± 0.042	1.12 ± 0.18	1.05 ± 0.094	0.993 ± 0.059	0.754 ± 0.1	0.366 ± 0.037	0.215 ± 0.0097	0.958 ± 0.16	0.986 ± 0.14	1.17 ± 0.085	1.15 ± 0.1	0.837 ± 0.016	0.662 ± 0.05	0.388 ± 0.036	0.317 ± 0.041
HCC1954 BREAST	0.993 ± 0.024	0.945 ± 0.056	1.153 ± 0.0064	1.03 ± 0.044	0.487 ± 0.08	0.322 ± 0.047	0.0592 ± 0.0095	0.0478 ± 0.0011	1.02 ± 0.06	0.947 ± 0.1	1.05 ± 0.064	0.875 ± 0.11	0.492 ± 0.02	0.363 ± 0.02	0.172 ± 0.011	0.127 ± 0.0092
HCT15 LARGE INTESTINE	0.981 ± 0.029	1.04 ± 0.051	1.01 ± 0.016	0.975 ± 0.021	0.76 ± 0.016	0.543 ± 0.04	0.16 ± 0.013	0.091 ± 0.0046	1.04 ± 0.026	1.03 ± 0.057	1.11 ± 0.041	1.1 ± 0.033	0.655 ± 0.035	0.525 ± 0.0089	0.249 ± 0.027	0.209 ± 0.0044
HELA CERVIX	0.998 ± 0.04	0.989 ± 0.088	1.02 ± 0.042	1.02 ± 0.035	1.11 ± 0.039	1.06 ± 0.052	0.4 ± 0.019	0.318 ± 0.017	1.05 ± 0.087	1.09 ± 0.069	1.112 ± 0.0048	1.02 ± 0.035	1.12 ± 0.061	1.2 ± 0.028	0.7 ± 0.019	0.4533 ± 0.0038
HOS BONE	0.992 ± 0.0078	0.983 ± 0.019	0.986 ± 0.012	0.906 ± 0.014	0.781 ± 0.021	0.618 ± 0.016	0.231 ± 0.012	0.178 ± 0.0092	1.02 ± 0.034	1.05 ± 0.036	1.02 ± 0.014	1.01 ± 0.018	0.763 ± 0.034	0.591 ± 0.017	0.317 ± 0.015	0.285 ± 0.015
HOSMNG BONE	1.03 ± 0.058	1.01 ± 0.087	1.04 ± 0.037	0.947 ± 0.034	0.944 ± 0.082	0.81 ± 0.033	0.348 ± 0.0079	0.186 ± 0.0096	0.956 ± 0.014	0.96 ± 0.041	0.929 ± 0.022	0.958 ± 0.05	0.917 ± 0.044	0.772 ± 0.035	0.426 ± 0.0052	0.297 ± 0.012
HSSYII SYNOVIAL	0.926 ± 0.034	0.941 ± 0.07	0.821 ± 0.045	0.789 ± 0.036	0.502 ± 0.006	0.329 ± 0.014	0.12 ± 0.0097	0.093 ± 0.0052	0.963 ± 0.072	0.921 ± 0.062	0.933 ± 0.012	0.88 ± 0.032	0.548 ± 0.017	0.38 ± 0.0082	0.165 ± 0.0072	0.129 ± 0.013
HT1080 SOFT TISSUE	1.02 ± 0.038	0.974 ± 0.029	1.001 ± 0.0067	0.955 ± 0.1	0.829 ± 0.012	0.661 ± 0.031	0.255 ± 0.015	0.161 ± 0.0072	0.985 ± 0.022	1.03 ± 0.011	1 ± 0.025	0.996 ± 0.055	0.6683 ± 0.0059	0.496 ± 0.021	0.221 ± 0.01	0.162 ± 0.0061
HU09 BONE	0.936 ± 0.058	0.941 ± 0.057	0.779 ± 0.044	0.793 ± 0.078	0.346 ± 0.042	0.168 ± 0.015	0.0383 ± 0.0015	0.0237 ± 0.0015	1.04 ± 0.18	1.07 ± 0.059	1.19 ± 0.053	1.12 ± 0.1	0.572 ± 0.025	0.416 ± 0.025	0.181 ± 0.013	0.134 ± 0.006
HUO3N1 BONE	0.986 ± 0.036	0.981 ± 0.039	0.924 ± 0.061	0.855 ± 0.028	0.614 ± 0.013	0.494 ± 0.026	0.242 ± 0.012	0.188 ± 0.003	0.992 ± 0.041	1.04 ± 0.042	0.946 ± 0.025	0.994 ± 0.039	0.838 ± 0.071	0.631 ± 0.031	0.341 ± 0.0053	0.258 ± 0.0061
JIMT1 BREAST	0.983 ± 0.03	0.961 ± 0.023	0.968 ± 0.011	0.937 ± 0.024	0.857 ± 0.021	0.606 ± 0.022	0.19 ± 0.0061	0.114 ± 0.013	1.03 ± 0.031	0.992 ± 0.024	0.983 ± 0.0095	0.992 ± 0.019	0.732 ± 0.03	0.464 ± 0.04	0.21 ± 0.013	0.194 ± 0.009
JURKAT HAEMATOPOIETIC AND LYMPHOID TISSUE	1.07 ± 0.026	1.09 ± 0.024	1.04 ± 0.021	1 ± 0.022	0.741 ± 0.017	0.57 ± 0.013	0.213 ± 0.011	0.135 ± 0.0042	1.05 ± 0.03	1.07 ± 0.032	1.05 ± 0.024	1.05 ± 0.03	0.788 ± 0.021	0.582 ± 0.021	0.211 ± 0.0053	0.056 ± 0.001
KPD BONE	0.973 ± 0.033	0.95 ± 0.056	0.908 ± 0.032	0.852 ± 0.032	0.486 ± 0.028	0.313 ± 0.019	0.0613 ± 0.0067	0.038 ± 0.0046	0.977 ± 0.065	1.01 ± 0.061	1 ± 0.024	0.951 ± 0.032	0.525 ± 0.029	0.361 ± 0.0087	0.0903 ± 0.0011	0.0727 ± 0.0025
LM7 BONE	0.996 ± 0.022	0.896 ± 0.031	0.947 ± 0.019	0.906 ± 0.057	0.691 ± 0.023	0.578 ± 0.022	0.205 ± 0.012	0.0677 ± 0.005	0.941 ± 0.042	1 ± 0.1	1.02 ± 0.094	1.07 ± 0.062	0.975 ± 0.077	0.845 ± 0.063	0.366 ± 0.016	0.312 ± 0.024
LNCAP PROSTATE	0.877 ± 0.095	0.872 ± 0.045	0.759 ± 0.026	0.622 ± 0.041	0.226 ± 0.024	0.099 ± 0.012	0.0437 ± 0.0051	0.035 ± 0.0044	0.998 ± 0.11	0.934 ± 0.06	0.887 ± 0.14	0.9 ± 0.12	0.405 ± 0.016	0.255 ± 0.039	0.087 ± 0.014	0.0853 ± 0.011
MCF7 BREAST	0.875 ± 0.029	0.851 ± 0.016	0.807 ± 0.027	0.764 ± 0.058	0.527 ± 0.0077	0.358 ± 0.0078	0.185 ± 0.0036	0.181 ± 0.0076	0.934 ± 0.071	0.961 ± 0.017	0.943 ± 0.064	0.941 ± 0.036	0.681 ± 0.023	0.5461 ± 0.0041	0.328 ± 0.012	0.2896 ± 0.0025
MDAMB134 BREAST	0.973 ± 0.12	0.869 ± 0.11	0.864 ± 0.061	0.839 ± 0.19	0.639 ± 0.11	0.682 ± 0.064	0.361 ± 0.0042	0.293 ± 0.05	1.08 ± 0.058	1.17 ± 0.033	1.11 ± 0.024	1.09 ± 0.021	0.881 ± 0.025	0.83 ± 0.083	0.474 ± 0.15	0.476 ± 0.03
MDAMB157 BREAST	0.899 ± 0.061	0.963 ± 0.12	0.802 ± 0.051	0.812 ± 0.042	0.705 ± 0.079	0.618 ± 0.088	0.432 ± 0.042	0.332 ± 0.02	0.983 ± 0.056	0.974 ± 0.1	0.936 ± 0.12	1.02 ± 0.11	0.825 ± 0.094	0.752 ± 0.081	0.454 ± 0.06	0.381 ± 0.008
MDAMB231 BREAST	0.98 ± 0.011	0.985 ± 0.021	0.949 ± 0.016	0.902 ± 0.018	0.645 ± 0.0077	0.495 ± 0.013	0.182 ± 0.0094	0.145 ± 0.0081	1.01 ± 0.026	1.02 ± 0.034	1.01 ± 0.032	0.959 ± 0.037	0.574 ± 0.016	0.437 ± 0.019	0.231 ± 0.0068	0.227 ± 0.013
MDAMB361 BREAST	0.905 ± 0.065	0.953 ± 0.1	0.852 ± 0.056	0.775 ± 0.096	0.78 ± 0.082	0.604 ± 0.026	0.248 ± 0.02	0.205 ± 0.028	0.888 ± 0.068	0.854 ± 0.045	0.904 ± 0.03	0.882 ± 0.051	0.794 ± 0.078	0.636 ± 0.037	0.355 ± 0.015	0.313 ± 0.02
